Measured values: PubChem BioAssay (NCI)
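Each compound was tested at five concentrations against cells in 96-well plates for 48 hours. Abbreviation: GI50, concentration required for 50% inhibition of growth. Definition used: TGI = concentration required for complete inhibition of growth.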

Experiments:
Test in all cases: growth of human tumour cells (NCI), 48 h
TK-10 renal = tested on: TK-10 renal
MALME-3M melanoma = tested on: MALME-3M melanoma
HS 578T breast = tested on: HS 578T breast
COLO 205 colon = tested on: COLO 205 colon
SNB-19 CNS = tested on: SNB-19 CNS
M14 melanoma = tested on: M14 melanoma
OVCAR-3 ovarian = tested on: OVCAR-3 ovarian
U251 CNS = tested on: U251 CNS
UACC-62 melanoma = tested on: UACC-62 melanoma
KM12 colon = tested on: KM12 colon
SW-620 colon = tested on: SW-620 colon
SF-268 CNS = tested on: SF-268 CNS
SK-MEL-5 melanoma = tested on: SK-MEL-5 melanoma
SNB-75 CNS = tested on: SNB-75 CNS
OVCAR-4 ovarian = tested on: OVCAR-4 ovarian
PC-3 prostate = tested on: PC-3 prostate
IGROV1 ovarian = tested on: IGROV1 ovarian
NCI-H23 lung = tested on: NCI-H23 lung
EKVX NSCLC = tested on: EKVX NSCLC
SK-MEL-28 melanoma = tested on: SK-MEL-28 melanoma
NCI/ADR-RES ovarian = tested on: NCI/ADR-RES ovarian
CAKI-1 renal = tested on: CAKI-1 renal
A549 NSCLC = tested on: A549 NSCLC
SN12C renal = tested on: SN12C renal
HOP-92 NSCLC = tested on: HOP-92 NSCLC
SF-295 CNS = tested on: SF-295 CNS
BT-549 breast = tested on: BT-549 breast
NCI-H460 lung = tested on: NCI-H460 lung
SK-OV-3 ovarian = tested on: SK-OV-3 ovarian
HT29 colon = tested on: HT29 colon
HCT-116 colon = tested on: HCT-116 colon
786-0 renal = tested on: 786-0 renal
OVCAR-8 ovarian = tested on: OVCAR-8 ovarian
A498 renal = tested on: A498 renal
NCI-H226 lung = tested on: NCI-H226 lung
NCI-H522 lung = tested on: NCI-H522 lung
SF-539 CNS = tested on: SF-539 CNS
UACC-257 melanoma = tested on: UACC-257 melanoma
HCT-15 colon = tested on: HCT-15 colon
RXF 393 renal = tested on: RXF 393 renal
OVCAR-5 ovarian = tested on: OVCAR-5 ovarian
SK-MEL-2 melanoma = tested on: SK-MEL-2 melanoma
MDA-MB-435 = tested on: MDA-MB-435
ACHN renal = tested on: ACHN renal
MDA-MB-231 breast = tested on: MDA-MB-231 breast
MCF7 breast = tested on: MCF7 breast
DU-145 prostate = tested on: DU-145 prostate
T-47D breast = tested on: T-47D breast
RPMI-8226 leukemia = tested on: RPMI-8226 leukemia
LOX IMVI melanoma = tested on: LOX IMVI melanoma
HCC-2998 colon = tested on: HCC-2998 colon
UO-31 renal = tested on: UO-31 renal
MOLT-4 leukemia = tested on: MOLT-4 leukemia
HOP-62 NSCLC = tested on: HOP-62 NSCLC
HL-60(TB) leukemia = tested on: HL-60(TB) leukemia
K-562 leukemia = tested on: K-562 leukemia
CCRF-CEM leukemia = tested on: CCRF-CEM leukemia

For Cc1ccc([I+]c2ccc(C)cc2)cc1, the GI50 (TK-10 renal) was 6.63 µM, the TGI (TK-10 renal) was over 100 µM and the GI50 (MALME-3M melanoma) was 1.97 µM. It also gave a TGI (MALME-3M melanoma) of 44.8 µM, a GI50 (HS 578T breast) of 24.8 µM and a TGI (HS 578T breast) of over 100 µM. It also gave a GI50 (COLO 205 colon) of 6.93 µM, a TGI (COLO 205 colon) of 95.2 µM and a GI50 (SNB-19 CNS) of 16.1 µM. The TGI (SNB-19 CNS) was over 100 µM, the GI50 (M14 melanoma) was 10.8 µM and the TGI (M14 melanoma) was over 100 µM. For the same molecule, the GI50 (OVCAR-3 ovarian) was 7.63 µM, the TGI (OVCAR-3 ovarian) was over 100 µM and the GI50 (U251 CNS) was 4.1 µM. For the same molecule, the TGI (U251 CNS) was over 100 µM, the GI50 (UACC-62 melanoma) was 8.86 µM and the TGI (UACC-62 melanoma) was over 100 µM. It also gave a GI50 (KM12 colon) of 4.27 µM, a TGI (KM12 colon) of 52.2 µM and a GI50 (SW-620 colon) of 3.94 µM. For the same molecule, the TGI (SW-620 colon) was over 100 µM, the GI50 (SF-268 CNS) was 7.49 µM and the TGI (SF-268 CNS) was over 100 µM. It also gave a GI50 (SK-MEL-5 melanoma) of 0.79 µM, a TGI (SK-MEL-5 melanoma) of 3.89 µM and a GI50 (SNB-75 CNS) of 7.44 µM. For the same molecule, the TGI (SNB-75 CNS) was over 100 µM, the GI50 (OVCAR-4 ovarian) was 7.75 µM and the TGI (OVCAR-4 ovarian) was over 100 µM. For the same molecule, the GI50 (PC-3 prostate) was 6.73 µM, the TGI (PC-3 prostate) was over 100 µM and the GI50 (IGROV1 ovarian) was 4.42 µM. The TGI (IGROV1 ovarian) was over 100 µM, the GI50 (NCI-H23 lung) was 2.03 µM and the TGI (NCI-H23 lung) was 93.4 µM. It also gave a GI50 (EKVX NSCLC) of 0.484 µM, a TGI (EKVX NSCLC) of 42.5 µM and a GI50 (SK-MEL-28 melanoma) of 10.6 µM. The TGI (SK-MEL-28 melanoma) was over 100 µM, the GI50 (NCI/ADR-RES ovarian) was over 100 µM and the TGI (NCI/ADR-RES ovarian) was over 100 µM. For the same molecule, the GI50 (CAKI-1 renal) was 4.55 µM, the TGI (CAKI-1 renal) was 71.4 µM and the GI50 (A549 NSCLC) was 4.22 µM. It also gave a TGI (A549 NSCLC) of over 100 µM, a GI50 (SN12C renal) of 18.6 µM and a TGI (SN12C renal) of over 100 µM. The GI50 (HOP-92 NSCLC) was 4.69 µM, the TGI (HOP-92 NSCLC) was over 100 µM and the GI50 (SF-295 CNS) was 1.86 µM. It also gave a TGI (SF-295 CNS) of 8.74 µM, a GI50 (BT-549 breast) of 5.28 µM and a TGI (BT-549 breast) of 75.7 µM. The GI50 (NCI-H460 lung) was 3.48 µM, the TGI (NCI-H460 lung) was 30.4 µM and the GI50 (SK-OV-3 ovarian) was 21.8 µM. It also gave a TGI (SK-OV-3 ovarian) of over 100 µM, a GI50 (HT29 colon) of 0.887 µM and a TGI (HT29 colon) of 27.4 µM. The GI50 (HCT-116 colon) was 0.821 µM, the TGI (HCT-116 colon) was over 100 µM and the GI50 (786-0 renal) was 28.8 µM. The TGI (786-0 renal) was over 100 µM, the GI50 (OVCAR-8 ovarian) was 2.2 µM and the TGI (OVCAR-8 ovarian) was 46.5 µM. It also gave a GI50 (A498 renal) of 2.28 µM, a TGI (A498 renal) of over 100 µM and a GI50 (NCI-H226 lung) of 17.8 µM. It also gave a TGI (NCI-H226 lung) of over 100 µM, a GI50 (NCI-H522 lung) of 12.3 µM and a TGI (NCI-H522 lung) of over 100 µM. For the same molecule, the GI50 (SF-539 CNS) was 16.4 µM, the TGI (SF-539 CNS) was over 100 µM and the GI50 (UACC-257 melanoma) was 2.71 µM. It also gave a TGI (UACC-257 melanoma) of 57.4 µM, a GI50 (HCT-15 colon) of 59.5 µM and a TGI (HCT-15 colon) of over 100 µM. It also gave a GI50 (RXF 393 renal) of 36.6 µM, a TGI (RXF 393 renal) of over 100 µM and a GI50 (OVCAR-5 ovarian) of 39.2 µM. The TGI (OVCAR-5 ovarian) was over 100 µM, the GI50 (SK-MEL-2 melanoma) was 14.1 µM and the TGI (SK-MEL-2 melanoma) was 94.4 µM. It also gave a GI50 (MDA-MB-435) of 5.28 µM, a TGI (MDA-MB-435) of 77.3 µM and a GI50 (ACHN renal) of 14.9 µM. It also gave a TGI (ACHN renal) of over 100 µM, a GI50 (MDA-MB-231 breast) of 25.1 µM and a TGI (MDA-MB-231 breast) of over 100 µM. It also gave a GI50 (MCF7 breast) of 4.01 µM, a TGI (MCF7 breast) of over 100 µM and a GI50 (DU-145 prostate) of 12 µM. It also gave a TGI (DU-145 prostate) of over 100 µM, a GI50 (T-47D breast) of 3.69 µM and a TGI (T-47D breast) of 54.2 µM. The GI50 (RPMI-8226 leukemia) was 1.16 µM, the TGI (RPMI-8226 leukemia) was 50 µM and the GI50 (LOX IMVI melanoma) was 2.33 µM. For the same molecule, the TGI (LOX IMVI melanoma) was over 100 µM, the GI50 (HCC-2998 colon) was 6.44 µM and the TGI (HCC-2998 colon) was over 100 µM. It also gave a GI50 (UO-31 renal) of 21.3 µM and a TGI (UO-31 renal) of over 100 µM.
COc1cc2c(OC)c3cc(C)oc(=O)c3c(O)c2c(O)c1-c1c(OC)cc2c(OC)c3cc(C)oc(=O)c3c(O)c2c1O showed a TGI (TK-10 renal) of 66.8 µM, a TGI (MALME-3M melanoma) of 37.2 µM and a TGI (HS 578T breast) of over 100 µM. The TGI (SNB-19 CNS) was 65.1 µM, the TGI (MOLT-4 leukemia) was 31.8 µM and the TGI (HOP-62 NSCLC) was 30.1 µM. The TGI (M14 melanoma) was 35.4 µM, the TGI (OVCAR-3 ovarian) was 33.9 µM and the TGI (U251 CNS) was 31.7 µM. For the same molecule, the TGI (UACC-62 melanoma) was 41 µM, the TGI (KM12 colon) was 40.4 µM and the TGI (SW-620 colon) was over 100 µM. It also gave a TGI (SF-268 CNS) of 42.6 µM, a TGI (SK-MEL-5 melanoma) of 35.8 µM and a TGI (SNB-75 CNS) of over 100 µM. For the same molecule, the TGI (OVCAR-4 ovarian) was over 100 µM, the TGI (HL-60(TB) leukemia) was 33.9 µM and the TGI (PC-3 prostate) was 33 µM. It also gave a TGI (IGROV1 ovarian) of 31.1 µM, a TGI (NCI-H23 lung) of 32.5 µM and a TGI (EKVX NSCLC) of 62.3 µM. It also gave a TGI (SK-MEL-28 melanoma) of 53.5 µM, a TGI (NCI/ADR-RES ovarian) of 35.7 µM and a TGI (CAKI-1 renal) of 47 µM. The TGI (A549 NSCLC) was 38.9 µM, the TGI (SN12C renal) was 45.2 µM and the TGI (HOP-92 NSCLC) was 55.9 µM. It also gave a TGI (SF-295 CNS) of 39.7 µM, a TGI (BT-549 breast) of 68.5 µM and a TGI (NCI-H460 lung) of 42.5 µM. For the same molecule, the TGI (SK-OV-3 ovarian) was over 100 µM, the TGI (HT29 colon) was 55.3 µM and the TGI (K-562 leukemia) was 34.3 µM. The TGI (HCT-116 colon) was 28 µM, the TGI (786-0 renal) was 60.8 µM and the TGI (OVCAR-8 ovarian) was 30 µM. It also gave a TGI (A498 renal) of 51 µM, a TGI (NCI-H226 lung) of 38.2 µM and a TGI (NCI-H522 lung) of 40 µM. The TGI (CCRF-CEM leukemia) was 39.3 µM, the TGI (SF-539 CNS) was 35.7 µM and the TGI (UACC-257 melanoma) was 44.1 µM. For the same molecule, the TGI (HCT-15 colon) was 39.4 µM, the TGI (RXF 393 renal) was 35.9 µM and the TGI (OVCAR-5 ovarian) was 40.9 µM. For the same molecule, the TGI (SK-MEL-2 melanoma) was 35.8 µM, the TGI (MDA-MB-435) was 33.9 µM and the TGI (ACHN renal) was 33.3 µM. For the same molecule, the TGI (MDA-MB-231 breast) was 36.6 µM, the TGI (MCF7 breast) was 51.1 µM and the TGI (DU-145 prostate) was over 100 µM. It also gave a TGI (T-47D breast) of over 100 µM, a TGI (RPMI-8226 leukemia) of 40.2 µM and a TGI (LOX IMVI melanoma) of 43.8 µM. For the same molecule, the TGI (HCC-2998 colon) was 33.5 µM and the TGI (UO-31 renal) was 35.9 µM.
